Experimental findings from EP0681475B1 (priority 1993, dated 1994) are described below.

Where two headings read alike, the source gives them in different places.

The test system of data set [1] is Vascular smooth muscle (BO54) cells. It counts as cell-based, baboon.
For data set [2] the test system is unchanged. Type of data set: cell-based, baboon. The source holds these as a separate data set.
The test system of data set [3] is vascular smooth muscle cells. Type of data set: in vivo, pig.
Data set [4] has as its system Vascular smooth muscle cells (BO54). In words: Scratch-migration assay. It counts as cell-based, baboon. Particulars: 0.1 µg/ml. As for the experimental part:
Scratch assays to determine the extent of smooth muscle cell migration inhibition by cytochalasin B were performed in accordance with the following protocol: Vascular smooth muscle cells (BO54) were derived from explants of baboon aortic smooth muscle, as described in Example 2. The cells were grown in flat bottom, six well tissue culture plates, which hold about 5 ml of medium. The vascular smooth muscle cells were plated at 200,000 cells/well and placed at 37°C in a humidified 5% CO2 incubator for 18 hours. The wells were then scratched with a sterile portion of a single edge razor blade that was held by clamp or pliers and was brought aseptically into contact with the bottom of the well at a 90° angle.The cells from a small area along the scratch were removed by a sterile cotton tipped applicator while the blade was in contact with the bottom of the well.
After incubation, the presence of cells in the "scratched" area is indicative of cell migration across the scratch line.
Briefly, a stock solution of cytochalasin B (Sigma Chemical Co.) in dimethyl sulfoxide (DMSO) at 1 mg/ml was prepared. Test dilutions of cytochalasin B or control medium were added. […]
The migration results are expressed as "Grade in the Cleared Area of the Well / Grade in an Undisturbed Region of the Well." The toxicity values represent a grade for all cells in each well.

Another data set concerns pig femoral arteries. As to conditions: in vivo.
The subject of data set [5] is Vascular smooth muscle cells. Briefly: In vitro recovery of migration after clearance of the agent. As to conditions: cells regenerate enough polymerized actin. Type of data set: cell-based.
For data set [6], the system named is Vascular smooth muscle cells.

In the case of `CN[C@@H]1C[C@H]2O[C@@](C)([C@@H]1OC)n1c3ccccc3c3c4c(c5c6ccccc6n2c5c31)C(=O)NC4` [staurosporin], the “minimum effective dose (MED)” value in data set [1] and in data set [2] was 1 ng/mL in each case. Also, the BRDU labeling grade in data set [3] (pig, in vivo) is recorded as 1 (key: 1 = ≤ 1/high power field(HPF); 2 = 2 to 5/HPF; 3 = > 5 to ≤ 10/HPF; 4 = > 10/HPF).
Consider cytochalasin B, for which, in data set [4] (even after 10 days of continuous exposure), the “migration grade following removal of the therapeutic agent” value is listed as “+3 to +4”. Also, in data set [4] (exposure), the “migration grade into the cleared area adjacent to the scratch” value is given as “+1 to +2”. The “effect on luminal area in dose response study” value in the data set with pig femoral arteries is on record as “significant threshold effect”. In addition, the “incidence of mural microthrombi” value in the data set on pig femoral arteries is on record as “decreased”. For the same molecule, the “lumen area in the test region compared to the normal control segment of the same artery” value in the data set on pig femoral arteries is listed as “approximately two times as large”. Also, the “luminal area compared to arteries treated with other test agents or controls” value in the data set on pig femoral arteries was “larger luminal area”. For the same molecule, in data set [5], the “time to resume migration after cells clear the agent” value is at most 24 h. Besides, the Morphological cytotoxicity grade turned out to be 0 in data set [6] (0.01ug, Continuous 24 hrs (first listing, 24 hr pulse series)); 0 in data set [6] (0.01ug, continuous 24 hrs (second listing, long term continuous series)); 1 in data set [6] (0.1 ug, Continuous 24 hrs (first listing, 24 hr pulse series)); 0 in data set [6] (0.1 ug, continuous 24 hrs (second listing, long term continuous series)); 3 in data set [6] (1 ug, Continuous 24 hrs (first listing, 24 hr pulse series)); 3 in data set [6] (1 ug, continuous 24 hrs (second listing, long term continuous series)). In addition, the cytotoxicity grade in data set [6] (1 µg/ml, anti-migration/contraction effective dose, 1 = minimal) is reported as 1. In data set [3] (24 hours following balloon trauma, pretrauma baseline grade 1), the BRDU labeling grade is reported as 1 (1 = ≤ 1/high power field(HPF)).
